Laboratory results taken from patent US10906924B2, “Modulators of indoleamine 2,3-dioxygenase” (GLAXOSMITHKLINE INTELLECTUAL PROPERTY DEVELOPMENT LIMITED, priority 2017, dated 2021).
Counter-ions that a name gives are not always drawn.

Biological target: indoleamine 2,3-dioxygenase (IDO1) (Homo sapiens, UniProt P14902)
Test: PBMC IDO1 assay (kynurenine by mass spectrometry)
Format: cell-based
Conditions: human PBMC stimulated with IFN-γ and LPS, 2 days incubation, kynurenine detected by mass spectrometry; read-out: IDO1 PBMC pIC50 (converted)

Sequence of indoleamine 2,3-dioxygenase (IDO1) (P14902 whole entry): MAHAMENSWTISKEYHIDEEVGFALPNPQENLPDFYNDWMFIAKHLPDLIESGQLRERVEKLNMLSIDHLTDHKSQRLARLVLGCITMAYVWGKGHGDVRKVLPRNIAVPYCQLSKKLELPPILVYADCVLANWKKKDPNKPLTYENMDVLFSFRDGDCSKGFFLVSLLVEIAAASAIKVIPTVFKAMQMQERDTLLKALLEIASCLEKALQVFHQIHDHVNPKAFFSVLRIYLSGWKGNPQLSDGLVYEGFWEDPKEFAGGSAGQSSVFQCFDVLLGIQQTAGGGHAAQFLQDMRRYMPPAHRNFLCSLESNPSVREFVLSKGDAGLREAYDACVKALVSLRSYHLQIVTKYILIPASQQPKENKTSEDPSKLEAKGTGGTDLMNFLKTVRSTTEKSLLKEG

IC50	Compound
0.158 µM	CCOC(=O)N1CCC2(CC1)CC(NC(=O)c1cccc3cn[nH]c13)c1ncccc1O2 (stereo not shown) [Example 29, ethyl 4′-(1H-indazole-7-carboxamido)-3′,4′-dihydrospiro[piperidine-4,2′-pyrano[3,2-b]pyridine]-1-carboxylate]
0.2 µM	O=C(N[C@H]1CC2(CCN(C(=O)Oc3ccccc3)CC2)Oc2ccc(Br)cc21)c1cccc2cn[nH]c12 [Example 31, (S)-phenyl 6-bromo-4-(1H-indazole-7-carboxamido)spiro[chroman-2,4′-piperidine]-1′-carboxylate]
0.2 µM	CCOC(=O)N1CCC2(CC1)CC(NC(=O)c1cccc3cn[nH]c13)c1ccncc1O2 (stereo not shown) [Example 33, ethyl 4′-(1H-indazole-7-carboxamido)-3′,4′-dihydrospiro[piperidine-4,2′-pyrano[2,3-c]pyridine]-1-carboxylate]
0.251 µM	CCOC(=O)N1CCC2(CC1)CC(NC(=O)c1ccccn1)c1ccccc1O2 (stereo not shown) [Example 34, ethyl 4-(picolinamido)spiro[chroman-2,4′-piperidine]-1′-carboxylate]
0.398 µM	CCOC(=O)N1CCC2(CC1)CC(NC(=O)c1cccc3ccn(C)c13)c1ccccc1O2 (stereo not shown) [Example 38, ethyl 4-(1-methyl-1H-indole-7-carboxamido)spiro[chroman-2,4′-piperidine]-1′-carboxylate]
0.398 µM	CCOC(=O)N1CCC2(CC1)CC(NC(=O)c1cccc3nc[nH]c13)c1ccccc1O2 (stereo not shown) [Example 39, ethyl 4-(1H-benzo[d]imidazole-7-carboxamido)spiro[chroman-2,4′-piperidine]-1′-carboxylate]
0.501 µM	CCOC(=O)N1CCC2(CC1)CC(NC(=O)c1cccnc1)c1ccccc1O2 (stereo not shown) [Example 41, ethyl 4-(nicotinamido)spiro[chroman-2,4′-piperidine]-1′-carboxylate]
0.501 µM	CCOC(=O)N1CCC2(CC1)CC(NC(=O)c1cccc3cn[nH]c13)c1cccnc1O2 (stereo not shown) [Example 42, ethyl 4′-(1H-indazole-7-carboxamido)-3′,4′-dihydrospiro[piperidine-4,2′-pyrano[2,3-b]pyridine]-1-carboxylate]
0.631 µM	CCOC(=O)N1CCC2(CC1)CC(NC(=O)c1ccnn1C)c1ccccc1O2 (stereo not shown) [Example 43, ethyl 4-(1-methyl-1H-pyrazole-5-carboxamido)spiro[chroman-2,4′-piperidine]-1′-carboxylate]
0.631 µM	CCOC(=O)N1CCC2(CC1)C[C@H](NC(=O)c1ccn[nH]1)c1cc(Br)ccc1O2 [Example 44, (S)-ethyl 6-bromo-4-(1H-pyrazole-5-carboxamido)spiro[chroman-2,4′-piperidine]-1′-carboxylate]
0.794 µM	CCOC(=O)N1CCC2(CC1)CC(NC(=O)c1ncccn1)c1ccccc1O2 (stereo not shown) [Example 45, ethyl 4-(pyrimidine-2-carboxamido)spiro[chroman-2,4′-piperidine]-1′-carboxylate]
0.794 µM	CCOC(=O)N1CCC2(CC1)CC(NC(=O)c1ncccc1OC)c1ccccc1O2 (stereo not shown) [Example 46, ethyl 4-(3-methoxypicolinamido)spiro[chroman-2,4′-piperidine]-1′-carboxylate]
0.00398 µM	CCOC(=O)N1CCC2(CC1)C[C@H](NC(=O)c1cccc3cnn(C(C)=O)c13)c1cc(Br)ccc1O2 [Example 52, ethyl (S)-4-(1-acetyl-1H-indazole-7-carboxamido)-6-bromospiro [chromane-2,4′-piperidine]-1′-carboxylate]
0.02 µM	COC(=O)N1CCC2(CC1)C[C@H](NC(=O)c1cccc3cn[nH]c13)c1ccccc1O2 [Example 54, methyl (S)-4-(1H-indazole-7-carboxamido)spiro[chromane-2,4′-piperidine]-1′-carboxylate]
0.01 µM	COC(=O)N1CCC2(CC1)C[C@H](NC(=O)c1cccc3cn[nH]c13)c1nc(OC)ccc1O2 [Example 57, methyl (S)-4′-(1H-indazole-7-carboxamido)-6′-methoxy-3′,4′-dihydrospiro[piperidine-4,2′-pyrano[3,2-b]pyridine]-1-carboxylate]
0.000794 µM	CCOC(=O)N1CCC2(CC1)C[C@H](NC(=O)c1cccc3c(CO)n[nH]c13)c1cc(Br)ccc1O2 [Example 59, ethyl (S)-6-bromo-4-(3-(hydroxymethyl)-1H-indazole-7-carboxamido) spiro[chromane-2,4′-piperidine]-1′-carboxylate]

The remaining lines, values behind:

Compound	IC50
CCOC(=O)N1CCC2(CC1)CC(NC(=O)c1cncc(F)c1)c1ccccc1O2 (stereo not shown) [Example 30, ethyl 4-(5-fluoronicotinamido)spiro[chroman-2,4′-piperidine]-1′-carboxylate]	0.2 µM
CCOC(=O)N1CCC2(CC1)C[C@H](NC(=O)c1ncc[nH]1)c1cc(Br)ccc1O2 [Example 32, (S)-ethyl 6-bromo-4-(1H-imidazole-2-carboxamido)spiro[chroman-2,4′-piperidine]-1′-carboxylate]	0.2 µM
CCOC(=O)N1CCC2(CC1)CC(NC(=O)c1cccnc1)c1nc(OC)ccc1O2 (stereo not shown) [Example 35, ethyl 6′-methoxy-4′-(nicotinamido)-3′,4′-dihydrospiro[piperidine-4,2′-pyrano[3,2-b]pyridine]-1-carboxylate]	0.251 µM
CCOC(=O)N1CCC2(CC1)CC(Nc1nnc(C(F)(F)F)s1)c1ccccc1O2 (stereo not shown) [Example 40, ethyl 4-((5-(trifluoromethyl)-1,3,4-thiadiazol-2-yl)amino)spiro[chroman-2,4′-piperidine]-1′-carboxylate]	0.398 µM
CCOC(=O)N1CCC2(CC1)C[C@H](NC(=O)c1cccc3cn(COP(=O)(O)O)nc13)c1cc(Br)ccc1O2 [Example 50, 2-amino-2-(hydroxymethyl)propane-1,3-diol hemi((S)-(7-((6-bromo-1-(ethoxycarbonyl)spiro[chroman-2,4′-piperidin]-4-yl)carbamoyl)-2H-indazol-2-yl)methyl phosphate)]	0.126 µM
CCOC(=O)N1CCC2(CC1)C[C@H](NC(=O)c1cccc3cnn(C(=O)OCC)c13)c1cc(Br)ccc1O2 [Example 51, ethyl (S)-6-bromo-4-(1-(ethoxycarbonyl)-1H-indazole-7-carboxamido)spiro[chromane-2,4′-piperidine]-1′-carboxylate]	0.01 µM
COC(=O)N1CCC2(CC1)C[C@H](NC(=O)c1cccc3cn(COP(=O)(O)O)nc13)c1cc(Br)ccc1O2 [Example 53, 2-amino-2-(hydroxymethyl)propane-1,3-diol hemi((S)-(7-((6-bromo-1′-(methoxycarbonyl)spiro[chroman-2,4′-piperidin]-4-yl)carbamoyl)-2H-indazol-2-yl)methyl phosphate)]	0.631 µM
CCOC(=O)N1CCC2(CC1)C[C@H](NC(=O)c1cccc3cn(COP(=O)(O)O)nc13)c1ccccc1O2 [Example 55, 2-amino-2-(hydroxymethyl)propane-1,3-diol hemi((S)-(7-((1′-(ethoxycarbonyl)spiro[chroman-2,4′-piperidin]-4-yl)carbamoyl)-2H-indazol-2-yl)methyl phosphate)]	0.126 µM
CCOC(=O)N1CCC2(CC1)C[C@H](NC(=O)c1cccc3cn(COP(=O)(O)O)nc13)c1nc(OC)ccc1O2 [Example 56, ethyl (S)-6′-methoxy-4′-(2-((phosphonooxy)methyl)-2H-indazole-7-carboxamido)-3′,4′-dihydrospiro[piperidine-4,2′-pyrano[3,2-b]pyridine]-1-carboxylate, bis 2-amino-2-(hydroxymethyl)-1,3-propanediol salt]	0.0794 µM
CCOC(=O)N1CCC2(CC1)C[C@H](NC(=O)c1cccc3cn(COP(=O)(O)O)nc13)c1cc(Br)ncc1O2 [Example 58, (S)-ethyl 6′-bromo-4′-(2-((phosphonooxy)methyl)-2H-indazole-7-carboxamido)-3′,4′-dihydrospiro[piperidine-4,2′-pyrano[2,3-c]pyridine]-1-carboxylate]	0.501 µM
CCOC(=O)N1CCC2(CC1)C[C@H](NC(=O)c1cccc3c(COC(=O)CCC(=O)O)[nH]nc13)c1cc(Br)ccc1O2 [Example 60, (S)-4-((7-((6-bromo-1′-(ethoxycarbonyl)spiro[chromane-2,4′-piperidin]-4-yl)carbamoyl)-1H-indazol-3-yl)methoxy)-4-oxobutanoic acid]	0.00126 µM
CCOC(=O)N1CCC2(CC1)C[C@H](NC(=O)c1cccc3c(COC(C)=O)[nH]nc13)c1cc(Br)ccc1O2 [Example 61, ethyl (S)-4-(3-(acetoxymethyl)-1H-indazole-7-carboxamido)-6-bromo spiro[chromane-2,4′-piperidine]-1′-carboxylate]	0.00126 µM
